The test system of assay [1] is riboswitch 15D10. The assay can be described thus: Luciferase reporter with 15D10 riboswitch (Luci-15D10) in HEK 293 cells. The format is cell-based, human. The settings on record: HEK 293 cells; for effect on luciferase expression from Luci-15D10: FIG. 9A, 9C; for fold induction at 50 µM: Homo sapiens, HEK293, 24 h, Table 2, read-out: Fold increase in riboswitch 15D10-regulated luciferase expression, HEK. The essentials: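 Cells transfected with riboswitch-luciferase plasmid; 4 h later medium replaced with TPP or thiamine analogs (fursultiamine, prosultiamine, bisbentiamine, beclotiamine, sulbutiamine) as inducers.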
A general note: Reporter assays use an easily measured gene product as a stand-in for the process of interest.

Assay [2] concerns riboswitch 15D10. The assay can be described thus: Luci-15D10 luciferase reporter in ARPE-19 cells. To be noted: FIG. 9E. Format: cell-based, human.
Assay [3] relates to riboswitch 15D10. The assay can be described thus: Luciferase reporter with 15D10 riboswitch (Luci-15D10) in AML12 cells. Format: cell-based, mouse. To be noted: for relative potency in inducing luciferase expression: AML 12 cells, compared with fursultiamine or within groups; for fold induction at 50 µM: Mus musculus, AML12, 24 h, Table 2, read-out: Fold increase in riboswitch 15D10-regulated luciferase expression, AML; for fold induction at 50 µM / luciferase regulation in response to ligand, riboswitch 15D10: AML12 cells; for luciferase regulation in response to ligand, riboswitch 15D10: FIG. 6B.

For assay [4], the system named is riboswitch 15D10. The assay can be described thus: Luci-15D10 luciferase reporter in Hep G2 cells. The format is cell-based, human. The settings on record: potency compared at 12.5 μM, FIG. 9F.
Assay [5] deals with riboswitch TPPm (E. coli thiM TPP aptamer). The assay can be described thus: Luciferase reporter with TPPm riboswitch in HEK 293 cells. Format: cell-based, human. To be noted: FIG. 1. The source says:
(§1) Riboswitch constructs: Aptamers were synthesized by Integrated DNA Technologies, Inc. and Golden Gate cloning strategy (New England Biolabs, NEB) was used to clone the synthesized aptamer sequences into intron-exon-intron cassette to replace the guanine aptamer in the G17 riboswitch cassette (see SEQ ID NO: 15 recited in WO 2016/126747, which is incorporated herein in its entirety) with a TPP aptamer from the Alishewanella tabrizica thiC gene (Microbiol Res. 2017 January; 195:71-80) or a TPP aptamer from the Escherichia coli thiM gene (Structure. 2006 September; 14(9):1459-68), generating riboswitch TPPz and TPPm, respectively.
(§2) Transfection: 3.5×10^4 human embryonic kidney (HEK) 293 cells were plated in a 96-well flat bottom plate the day before transfection. Plasmid DNA (500 ng) was added to a tube or a 96-well U-bottom plate. Separately, TransIT-293 reagent (Mirus; 1.4 μL) was added to 50 μL Optimem I media (Life Technologies) and allowed to sit for 5 minutes at room temperature (RT). Then, 50 μL of this diluted transfection reagent was added to the DNA, mixed, and incubated at RT for 20 min. Finally, 7 μL of this solution was added to a well of cells in the 96-well plate. Four hours after transfection, medium containing transfection solution was replaced by medium containing either TPP, fursultiamine, prosultiamine, bisbentiamine, beclotiamine hydrochloride, or sulbutiamine as aptamer inducers.
(§3) Firefly luciferase assay of cultured cells: Twenty-four hours after media change, plates were removed from the incubator, and equilibrated to RT for several minutes on a lab bench, then aspirated. Glo-lysis buffer (Promega, 100 μL, RT) was added, and the plates allowed to remain at RT for at least 5 minutes. Then, the well contents were mixed by 50 μL trituration, and 20 μL of each sample was mixed with 20 μL of bright-glo reagent (Promega) that had been diluted to 10% in glo-lysis buffer. 96 wells were spaced on an opaque white 384-well plate. Following a 5 min incubation at RT, luminescence was measured using a Tecan machine with 500 ms read time. The luciferase activity was expressed as mean arbitrary light units (ALU)±S.D., and fold induction was calculated as the quotient of the luciferase activity obtained from cells with TPP or analog treatment divided by the luciferase activity obtained from cells without TPP or analog treatment.

Assay [6] concerns riboswitch comprising aptamer 15A5. The assay can be described thus: Luciferase reporter with 15A5 riboswitch in AML12 cells. Format: cell-based, mouse. To be noted: FIG. 6B.
Assay [7] concerns riboswitch TPPz (A. tabrizica thiC TPP aptamer). The assay can be described thus: Luciferase reporter with TPPz riboswitch in HEK 293 cells. Format: cell-based, human. The settings on record: FIG. 1.
Excerpt: as §1, §2, §3

For assay [8], the system named is riboswitch 6B4. The assay can be described thus: In vivo bioluminescence imaging, mice given AAV luci-6B4. More on the design: species or system Balb/c mice. The source says: (§4) AAV2.8 viral particle production: The AAV2.8 particles used for the transfection of mice comprised a viral genome derived from AAV2 and a capsid derived from AAV8. The luciferase gene containing an intron-exon-intron cassette with (1) a non-regulatable riboswitch without aptamer (“luci-Con1”, SEQ ID NO:90), (2) a riboswitch cassette comprising aptamer 3H4 (“luci-3H4”, SEQ ID NO:91), or (3) a riboswitch cassette comprising aptamer 6B4 (“luci-6B4”, SEQ ID NO:92), respectively, was cloned into an AAV2 plasmid vector. Expression of the luciferase gene was controlled by a CASI promoter, which includes CMV and ubiquitin C enhancer elements and the chicken β-actin promoter. The viral vector was packaged into AAV8 capsid and produced following manufacture's protocol (Vigene Biosciences).
(§5) Animal study: Male Balb/c mice received a single tail vein injection of 1.0×10^11 or 2.5×10^11 genome copies of the receptive AAV2.8 viral particle. Twenty-eight days after AAV vector delivery, mice were treated intraperitoneally (IP.) with 50 mg/kg prosultiamine. Luciferase activity was measured the day prior to drug dosing, as well as 6 h, 24 h, 48 h and 72 h after drug dosing. After the first administration of prosultiamine, the mice were subjected to three additional rounds of dosing and imaging cycles as follows: Day 36 (after AAV administration):100 mg/kg; day 43: 200 mg/kg; and day 51: 400 mg/kg.
(§6) Noninvasive live animal bioluminescence imaging: Before imaging, mice were anesthetized with 2% isoflurane, and injected with 150 mg/kg body weight of luciferin. At the indicated time point post drug dosing, images were taken within 2 to 5 minutes after luciferin injection using a Bruker Xtreme system. Luciferase activity was expressed as mean photon/s±S.D. (n=5). The fold induction of luciferase gene expression was calculated as the quotient of photon/s obtained from mice treated with prosultiamine divided by the value obtained from mice the day before prosultiamine treatment.

Assay [9] has as its system riboswitch 3H4. The assay can be described thus: In vivo bioluminescence imaging, mice given AAV luci-3H4. On the set-up: species or system Balb/c mice.
Excerpt: as §4, §5, §6

Setting [10] is: 50 mg/kg IP single dose, six hours after dosing.
Where [11] appears, read: 50 mg/kg and 100 mg/kg IP doses.
[12] abbreviates: 200 mg/kg and 400 mg/kg IP doses.

Where only a bound is given, the exact number is not on record here.

Turning to `C/C(=C(\CCO)SCOC(=O)C(C)(C)C)N(C=O)Cc1cnc(C)nc1N` [Compound M10, (Z)-((2-(N-((4-Amino-2-methylpyrimidin-5-yl)methyl)formamido)-5-hydroxypent-2-en-3-yl)thio)methyl pivalate], in [1], the “effect on luciferase expression from Luci-15D10” value (“effect … from Luci-15D10” below) was “increased”. In addition, the “activity in increasing riboswitch 15D10-regulated luciferase expression” value in assay [2] was “equivalent potency to fursultaimine”. Also, the “relative potency in inducing luciferase expression” value (from here on “relative potency”) in assay [3] is “more potent than fursultiamine”.

Regarding `C/C(=C(\CCO)SCOC(=O)C12CC3CC(CC(C3)C1)C2)N(C=O)Cc1cnc(C)nc1N` [Compound M19, (((Z)-2-(N-((4-Amino-2-methylpyrimidin-5-yl)methyl)formamido)-5-hydroxypent-2-en-3-yl)thio)methyl (3r,5r,7r)-adamantane-1-carboxylate], the “fold increase in luciferase expression” value in [1] (12.5 μM) is given as 168.7 fold. For the same molecule, in [1], the “effect … from Luci-15D10” value is “increased” and the fold induction at 50 µM amounted to 676. Besides, the “relative potency” value in assay [1] (compared with fursultiamine or within Formula V/VI groups) is “more potent”. Also, in assay [2], the “activity in increasing riboswitch 15D10-regulated luciferase expression” value is recorded as “equivalent potency to fursultaimine”. Also, in [3], the “relative potency” value is listed as “more potent than fursultiamine” and the fold induction at 50 µM is 330.

For `C/C(=C(\CCO)SCOC(=O)c1ccccc1)N(C=O)Cc1cnc(C)nc1N` [Compound M21, (Z)-((2-(N-((4-Amino-2-methylpyrimidin-5-yl)methyl)formamido)-5-hydroxypent-2-en-3-yl)thio)methyl benzoate], in [1], the “effect … from Luci-15D10” value is “increased” and the fold induction at 50 µM stood at 618. Besides, the “activity in increasing riboswitch 15D10-regulated luciferase expression” value in assay [2] is recorded as “equivalent potency to fursultaimine”. Moreover, in assay [3], the “relative potency” value is “more potent than fursultiamine” and the fold induction at 50 µM turned out to be 229.

For the molecule `COc1ccc(C(=O)S/C(CCOP(=O)(O)O)=C(/C)N(C=O)Cc2cnc(C)nc2N)cc1` [Compound M32, (Z)—S-(2-(N-((4-Amino-2-methylpyrimidin-5-yl)methyl)formamido)-5-(phosphonooxy)pent-2-en-3-yl) 4-methoxybenzothioate], the “activity in increasing riboswitch 15D10-regulated luciferase expression” value in assay [4] and in assay [2] was “no activity” in each case. In addition, in assay [1], the “effect … from Luci-15D10” value is reported as “no effect on luciferase expression”.

For `Cc1ncc(C[n+]2csc(CCO[P@](=O)(O)OP(=O)(O)O)c2C)c(N)n1` [TPP, thiamine pyrophosphate], in assay [5], the “effect on luciferase expression, riboswitch TPPm” value is on record as “regulate luciferase expression”. The “luciferase regulation in response to ligand, riboswitch 15A5” value (from here on “luciferase regulation … riboswitch 15A5”) in [6] is given as “respond very poorly”. In addition, the “luciferase regulation in response to ligand, riboswitch 15D10” value (from here on “luciferase regulation … riboswitch 15D10”) in [3] is recorded as “respond very poorly”. Also, in assay [7], the “effect on luciferase expression, riboswitch TPPz” value is on record as “regulate luciferase expression”.

As for `C/C(=C(\CCOP(=O)(O)O)SC(=O)c1ccccc1)N(C=O)Cc1cnc(C)nc1N` [benfotiamine, reference compound], the “activity in increasing riboswitch 15D10-regulated luciferase expression” value in assay [4] and in assay [2] was “no activity” throughout. Moreover, in assay [1], the “effect … from Luci-15D10” value was “no effect on luciferase expression”. For the same molecule, in [6], the “luciferase regulation … riboswitch 15A5” value was “robustly regulate luciferase expression”. The “luciferase regulation … riboswitch 15D10” value in [3] was “robustly regulate luciferase expression”.

As for `CCCSS/C(CCO)=C(/C)N(C=O)Cc1cnc(C)nc1N` [prosultiamine], the “luciferase activity in mice, riboswitch 6B4” value in assay [8] (setting [10]) is recorded as “significantly increased”. For the same molecule, the “time at which induced luciferase activity attenuated to pre-treatment level” value in assay [8] (setting [11]) and in assay [9] (setting [11]) was 24 h each time. For the same molecule, the “time induced luciferase activity remained” value in assay [8] (setting [12]) and in [9] (setting [12]) was at least 48 h in each case. Further, the “effect on luciferase expression, riboswitch TPPm” value in assay [5] is reported as “induce luciferase expression”. In addition, in assay [6], the “luciferase regulation … riboswitch 15A5” value is reported as “robustly regulate luciferase expression”. The “luciferase activity in mice, riboswitch 3H4” value in [9] (setting [10]) is reported as “significantly increased”. Also, the “luciferase regulation … riboswitch 15D10” value in assay [3] was “robustly regulate luciferase expression”. Moreover, the “effect on luciferase expression, riboswitch TPPz” value in assay [7] is reported as “induce luciferase expression”.

The record behind these values is patent publication US12570988B2, “Aptamers that bind thiamine analogs and derivatives” (MeiraGTx Gene Regulation Limited, priority 2020, dated 2026).
